In PMC4685510, “A Cell Biologist’s Field Guide to Aurora Kinase Inhibitors” (Frontiers in Oncology, 2015):

Tests used:
Assay in all cases: biochemical
Type in all cases: biochemical
[1] = molecular target: 363 human kinases (including Aurora A/B/C) (Homo sapiens, UniProt Q9UIK4); conditions: DAPK2, [ATP] 5 µM, 500 nM
Source text: (§1) However, the Aurora A/B selectivity ratios derived from our in vitro and in vivo data can be compared to prioritize inhibitors.

[2] = molecular target: 363 human kinases (including Aurora A/B/C) (Homo sapiens, UniProt Q13177); conditions: PAK2, 500 nM
Source text: as §1

[3] = molecular target: 363 human kinases (including Aurora A/B/C) (Homo sapiens, UniProt P68400); conditions: CK2a; [ATP] 20 µM; 500 nM; read-out: % Enzyme Activity (relative to DMSO controls)
Source text: as §1

[4] = molecular target: 363 human kinases (including Aurora A/B/C) (Homo sapiens, UniProt P50613); conditions: CDK7/cyclin H, [ATP] 50 µM, 500 nM
Sequence of 363 human kinases (including Aurora A/B/C) (Homo sapiens, UniProt P50613) (P50613 whole entry): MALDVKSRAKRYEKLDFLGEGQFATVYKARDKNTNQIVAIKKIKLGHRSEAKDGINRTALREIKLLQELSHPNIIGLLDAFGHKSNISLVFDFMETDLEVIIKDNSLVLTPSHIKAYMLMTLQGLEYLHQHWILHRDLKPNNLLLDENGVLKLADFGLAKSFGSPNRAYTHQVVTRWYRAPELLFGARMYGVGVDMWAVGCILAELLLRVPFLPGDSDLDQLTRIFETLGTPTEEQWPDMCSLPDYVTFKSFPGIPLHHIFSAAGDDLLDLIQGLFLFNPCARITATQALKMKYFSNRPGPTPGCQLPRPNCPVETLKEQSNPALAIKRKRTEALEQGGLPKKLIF
Source text: as §1

[5] = molecular target: 363 human kinases (including Aurora A/B/C) (Homo sapiens, UniProt Q02750); conditions: MEK1, 500 nM
Sequence of 363 human kinases (including Aurora A/B/C) (Homo sapiens, UniProt Q02750) (Q02750 whole entry): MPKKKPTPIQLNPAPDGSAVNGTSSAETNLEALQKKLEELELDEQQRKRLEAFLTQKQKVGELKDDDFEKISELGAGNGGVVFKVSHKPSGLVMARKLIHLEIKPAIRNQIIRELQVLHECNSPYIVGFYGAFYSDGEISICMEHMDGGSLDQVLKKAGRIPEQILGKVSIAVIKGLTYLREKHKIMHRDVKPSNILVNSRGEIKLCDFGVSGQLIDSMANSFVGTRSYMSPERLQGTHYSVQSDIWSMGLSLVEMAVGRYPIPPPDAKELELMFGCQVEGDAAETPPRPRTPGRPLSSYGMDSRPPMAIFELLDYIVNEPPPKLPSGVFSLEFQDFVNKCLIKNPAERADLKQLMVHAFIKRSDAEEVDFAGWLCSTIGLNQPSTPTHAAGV
Source text: as §1

[6] = molecular target: 363 human kinases (including Aurora A/B/C) (Homo sapiens, UniProt Q9HAZ1); conditions: CLK4, [ATP] 100 µM, 500 nM
Sequence of 363 human kinases (including Aurora A/B/C) (Homo sapiens, UniProt Q9HAZ1) (Q9HAZ1 whole entry): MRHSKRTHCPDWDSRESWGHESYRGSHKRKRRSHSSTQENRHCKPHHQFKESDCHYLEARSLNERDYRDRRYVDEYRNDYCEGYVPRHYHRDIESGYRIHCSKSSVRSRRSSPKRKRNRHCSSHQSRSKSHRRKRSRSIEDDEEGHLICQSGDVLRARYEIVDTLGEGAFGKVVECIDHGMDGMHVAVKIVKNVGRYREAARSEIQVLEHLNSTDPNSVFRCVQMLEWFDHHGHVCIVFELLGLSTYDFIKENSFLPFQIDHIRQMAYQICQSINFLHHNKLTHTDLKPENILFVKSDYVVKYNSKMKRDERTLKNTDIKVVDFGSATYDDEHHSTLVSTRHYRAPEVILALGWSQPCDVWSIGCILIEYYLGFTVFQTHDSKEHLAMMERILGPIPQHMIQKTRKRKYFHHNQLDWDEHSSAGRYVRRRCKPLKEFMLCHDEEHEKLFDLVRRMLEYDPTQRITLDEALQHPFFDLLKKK
Source text: as §1

[7] = molecular target: 363 human kinases (including Aurora A/B/C) (Homo sapiens, UniProt Q13464); conditions: ROCK1, 500 nM
Sequence of 363 human kinases (including Aurora A/B/C) (Homo sapiens, UniProt Q13464) (Q13464 whole entry): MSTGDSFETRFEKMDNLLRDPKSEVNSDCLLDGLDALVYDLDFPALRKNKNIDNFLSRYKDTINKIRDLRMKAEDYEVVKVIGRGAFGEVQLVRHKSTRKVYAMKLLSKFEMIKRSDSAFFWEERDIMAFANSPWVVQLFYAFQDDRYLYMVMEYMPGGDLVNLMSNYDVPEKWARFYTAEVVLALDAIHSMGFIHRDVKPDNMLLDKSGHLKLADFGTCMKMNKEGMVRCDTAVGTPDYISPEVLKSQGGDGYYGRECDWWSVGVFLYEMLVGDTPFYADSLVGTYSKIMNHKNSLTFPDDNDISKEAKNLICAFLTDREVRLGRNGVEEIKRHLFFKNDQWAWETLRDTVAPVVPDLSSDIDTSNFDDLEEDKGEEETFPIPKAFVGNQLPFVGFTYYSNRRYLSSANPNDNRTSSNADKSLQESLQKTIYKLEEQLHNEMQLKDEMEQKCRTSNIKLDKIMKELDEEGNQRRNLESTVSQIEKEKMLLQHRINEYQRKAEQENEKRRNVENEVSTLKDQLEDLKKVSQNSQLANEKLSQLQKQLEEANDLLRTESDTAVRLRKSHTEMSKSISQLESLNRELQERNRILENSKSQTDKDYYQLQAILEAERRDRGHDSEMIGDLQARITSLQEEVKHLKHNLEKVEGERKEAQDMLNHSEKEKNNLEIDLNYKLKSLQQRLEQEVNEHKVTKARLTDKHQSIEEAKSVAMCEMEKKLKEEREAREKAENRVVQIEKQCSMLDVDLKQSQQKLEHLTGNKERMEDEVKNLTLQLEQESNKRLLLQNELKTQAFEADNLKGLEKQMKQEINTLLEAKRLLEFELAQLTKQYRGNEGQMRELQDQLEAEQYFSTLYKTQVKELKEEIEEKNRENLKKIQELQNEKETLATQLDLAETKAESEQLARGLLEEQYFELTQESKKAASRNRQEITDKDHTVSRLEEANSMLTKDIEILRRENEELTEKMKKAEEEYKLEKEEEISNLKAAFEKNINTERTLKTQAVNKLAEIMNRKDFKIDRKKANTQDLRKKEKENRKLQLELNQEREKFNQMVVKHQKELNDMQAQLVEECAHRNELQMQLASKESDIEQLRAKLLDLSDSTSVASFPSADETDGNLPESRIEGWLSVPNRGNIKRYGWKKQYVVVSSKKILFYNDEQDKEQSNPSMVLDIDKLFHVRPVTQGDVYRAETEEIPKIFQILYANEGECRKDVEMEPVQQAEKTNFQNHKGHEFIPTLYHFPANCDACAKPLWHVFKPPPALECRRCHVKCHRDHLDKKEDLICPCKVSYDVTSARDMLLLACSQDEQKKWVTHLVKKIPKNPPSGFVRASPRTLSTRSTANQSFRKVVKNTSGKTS
Source text: as §1

[8] = molecular target: 363 human kinases (including Aurora A/B/C) (Homo sapiens, UniProt P21802); conditions: FGFR2, [ATP] 5 µM, 500 nM
Source text: as §1

[9] = molecular target: 363 human kinases (including Aurora A/B/C) (Homo sapiens, UniProt Q9HC98); conditions: NEK6, 500 nM
Source text: as §1

[10] = molecular target: T1, 363 human kinases (including Aurora A/B/C) (Homo sapiens, UniProt Q6XUX3); conditions: RIPK5, 500 nM
T1 sequence (Q6XUX3 1-929): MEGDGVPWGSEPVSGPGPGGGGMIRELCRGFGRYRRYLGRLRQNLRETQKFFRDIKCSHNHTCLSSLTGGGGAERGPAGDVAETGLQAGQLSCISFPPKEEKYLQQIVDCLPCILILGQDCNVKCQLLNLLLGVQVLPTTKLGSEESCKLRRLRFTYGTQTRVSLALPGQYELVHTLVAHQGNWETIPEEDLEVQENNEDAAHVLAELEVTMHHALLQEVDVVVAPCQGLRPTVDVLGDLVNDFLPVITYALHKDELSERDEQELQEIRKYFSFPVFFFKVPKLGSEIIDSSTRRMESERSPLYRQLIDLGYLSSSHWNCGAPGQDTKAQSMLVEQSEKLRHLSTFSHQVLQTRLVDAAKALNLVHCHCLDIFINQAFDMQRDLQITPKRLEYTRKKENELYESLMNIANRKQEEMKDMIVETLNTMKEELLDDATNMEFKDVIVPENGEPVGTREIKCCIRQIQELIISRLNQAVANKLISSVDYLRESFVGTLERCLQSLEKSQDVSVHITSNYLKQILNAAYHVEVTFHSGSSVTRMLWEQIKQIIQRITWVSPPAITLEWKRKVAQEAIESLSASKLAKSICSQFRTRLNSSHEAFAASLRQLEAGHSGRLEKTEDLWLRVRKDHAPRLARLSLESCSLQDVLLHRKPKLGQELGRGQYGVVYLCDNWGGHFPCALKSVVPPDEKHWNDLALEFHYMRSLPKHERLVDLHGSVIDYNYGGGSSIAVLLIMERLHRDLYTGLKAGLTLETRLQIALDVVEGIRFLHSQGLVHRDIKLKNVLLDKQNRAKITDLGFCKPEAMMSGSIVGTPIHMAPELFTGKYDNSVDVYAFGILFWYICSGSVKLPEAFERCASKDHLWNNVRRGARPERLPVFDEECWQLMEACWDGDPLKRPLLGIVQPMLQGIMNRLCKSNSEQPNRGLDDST
Source text: as §1

[11] = molecular target: 363 human kinases (including Aurora A/B/C) (Homo sapiens, UniProt P31749); conditions: AKT1, [ATP] 100 µM, 500 nM
Sequence of 363 human kinases (including Aurora A/B/C) (Homo sapiens, UniProt P31749) (P31749 whole entry): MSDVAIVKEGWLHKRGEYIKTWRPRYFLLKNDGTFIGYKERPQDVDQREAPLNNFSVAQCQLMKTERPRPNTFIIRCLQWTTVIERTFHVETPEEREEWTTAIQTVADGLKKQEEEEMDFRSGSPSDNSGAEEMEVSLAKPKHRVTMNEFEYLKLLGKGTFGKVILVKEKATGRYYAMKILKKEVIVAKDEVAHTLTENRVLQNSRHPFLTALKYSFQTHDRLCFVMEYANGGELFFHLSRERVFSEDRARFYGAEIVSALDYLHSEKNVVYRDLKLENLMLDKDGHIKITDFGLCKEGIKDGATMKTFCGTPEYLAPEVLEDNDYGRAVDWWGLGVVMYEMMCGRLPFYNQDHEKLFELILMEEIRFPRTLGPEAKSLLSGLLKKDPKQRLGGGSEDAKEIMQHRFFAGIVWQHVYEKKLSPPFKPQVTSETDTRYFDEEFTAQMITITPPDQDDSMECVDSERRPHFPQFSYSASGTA
Source text: as §1

[12] = molecular target: 363 human kinases (including Aurora A/B/C) (Homo sapiens, UniProt P49674); conditions: CK1epsilon, [ATP] 50 µM, 500 nM
Sequence of 363 human kinases (including Aurora A/B/C) (Homo sapiens, UniProt P49674) (P49674 whole entry): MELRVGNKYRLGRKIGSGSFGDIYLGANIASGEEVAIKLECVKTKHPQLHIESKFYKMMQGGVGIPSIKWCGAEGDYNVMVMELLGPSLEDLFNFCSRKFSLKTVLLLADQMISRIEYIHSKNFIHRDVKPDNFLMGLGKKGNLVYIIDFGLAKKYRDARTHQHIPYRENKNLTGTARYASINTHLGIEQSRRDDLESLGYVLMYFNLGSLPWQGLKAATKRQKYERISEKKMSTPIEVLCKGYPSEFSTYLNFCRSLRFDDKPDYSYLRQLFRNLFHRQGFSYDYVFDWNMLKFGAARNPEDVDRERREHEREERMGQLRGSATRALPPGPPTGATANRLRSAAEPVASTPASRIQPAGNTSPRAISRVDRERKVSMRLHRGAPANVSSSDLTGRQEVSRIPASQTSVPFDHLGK
Source text: as §1

[13] = molecular target: T2, 363 human kinases (including Aurora A/B/C) (Homo sapiens, UniProt Q9UEE5); conditions: DRAK1/STK17A, [ATP] 30 µM, 500 nM
T2 sequence (Q9UEE5 1-414): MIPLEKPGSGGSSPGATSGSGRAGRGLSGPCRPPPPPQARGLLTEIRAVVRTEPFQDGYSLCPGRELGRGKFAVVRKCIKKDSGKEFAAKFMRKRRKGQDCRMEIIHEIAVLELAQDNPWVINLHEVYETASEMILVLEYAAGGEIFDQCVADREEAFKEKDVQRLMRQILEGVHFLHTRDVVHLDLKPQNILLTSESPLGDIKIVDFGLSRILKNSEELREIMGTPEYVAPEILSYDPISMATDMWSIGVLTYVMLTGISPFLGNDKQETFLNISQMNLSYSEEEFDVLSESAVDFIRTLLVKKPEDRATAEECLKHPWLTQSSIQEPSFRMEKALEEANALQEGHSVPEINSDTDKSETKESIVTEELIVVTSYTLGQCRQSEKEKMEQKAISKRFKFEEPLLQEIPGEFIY
Source text: as §1

[14] = molecular target: 363 human kinases (including Aurora A/B/C) (Homo sapiens, UniProt P42685); conditions: FRK/PTK5, 500 nM
Source text: as §1

[15] = molecular target: 363 human kinases (including Aurora A/B/C) (Homo sapiens, UniProt P53350); conditions: PLK1, 500 nM
Sequence of 363 human kinases (including Aurora A/B/C) (Homo sapiens, UniProt P53350) (P53350 whole entry): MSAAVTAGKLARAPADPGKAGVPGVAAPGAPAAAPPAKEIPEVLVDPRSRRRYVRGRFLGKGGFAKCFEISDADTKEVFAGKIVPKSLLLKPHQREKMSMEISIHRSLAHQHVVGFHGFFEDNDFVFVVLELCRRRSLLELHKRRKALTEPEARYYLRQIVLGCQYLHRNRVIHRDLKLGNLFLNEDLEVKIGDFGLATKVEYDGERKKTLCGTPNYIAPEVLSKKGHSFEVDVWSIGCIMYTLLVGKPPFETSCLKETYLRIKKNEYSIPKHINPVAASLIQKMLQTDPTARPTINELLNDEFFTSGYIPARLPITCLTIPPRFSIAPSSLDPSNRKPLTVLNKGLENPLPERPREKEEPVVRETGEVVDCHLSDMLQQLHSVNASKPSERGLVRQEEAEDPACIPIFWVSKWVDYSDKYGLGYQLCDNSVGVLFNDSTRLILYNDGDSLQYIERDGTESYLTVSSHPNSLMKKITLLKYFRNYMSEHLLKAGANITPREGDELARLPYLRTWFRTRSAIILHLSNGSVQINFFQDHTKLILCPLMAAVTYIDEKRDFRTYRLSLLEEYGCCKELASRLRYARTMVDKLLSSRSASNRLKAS
Source text: as §1

[16] = molecular target: 363 human kinases (including Aurora A/B/C) (Homo sapiens, UniProt Q9Y6M4); conditions: CK1g3, [ATP] 10 µM, 500 nM
Sequence of 363 human kinases (including Aurora A/B/C) (Homo sapiens, UniProt Q9Y6M4) (Q9Y6M4 whole entry): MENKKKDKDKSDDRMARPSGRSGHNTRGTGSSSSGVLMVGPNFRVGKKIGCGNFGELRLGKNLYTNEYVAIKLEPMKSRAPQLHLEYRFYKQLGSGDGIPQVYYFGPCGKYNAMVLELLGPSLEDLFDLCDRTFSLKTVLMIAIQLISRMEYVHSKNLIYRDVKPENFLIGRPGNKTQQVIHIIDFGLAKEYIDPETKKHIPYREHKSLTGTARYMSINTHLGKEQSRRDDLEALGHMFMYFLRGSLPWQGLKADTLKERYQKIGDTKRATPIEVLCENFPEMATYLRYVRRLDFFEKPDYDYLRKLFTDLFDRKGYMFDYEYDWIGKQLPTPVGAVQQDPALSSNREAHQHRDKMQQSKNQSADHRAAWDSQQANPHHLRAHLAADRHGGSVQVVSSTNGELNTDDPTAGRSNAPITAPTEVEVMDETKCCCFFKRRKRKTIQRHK
Source text: as §1

[17] = read-out: % Enzyme Activity (relative to DMSO controls)

Sequence of 363 human kinases (including Aurora A/B/C) (Homo sapiens, UniProt Q9UIK4) (Q9UIK4 whole entry): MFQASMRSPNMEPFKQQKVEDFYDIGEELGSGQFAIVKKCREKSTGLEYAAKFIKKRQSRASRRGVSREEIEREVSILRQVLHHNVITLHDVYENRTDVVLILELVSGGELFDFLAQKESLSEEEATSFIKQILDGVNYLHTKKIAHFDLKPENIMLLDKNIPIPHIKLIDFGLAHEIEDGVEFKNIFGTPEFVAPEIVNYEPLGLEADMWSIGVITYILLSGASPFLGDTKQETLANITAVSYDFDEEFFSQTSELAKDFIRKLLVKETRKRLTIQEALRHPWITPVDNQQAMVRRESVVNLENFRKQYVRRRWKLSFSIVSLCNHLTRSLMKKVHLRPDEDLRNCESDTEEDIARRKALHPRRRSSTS

SMILES: O=C(c1cccc(Cl)c1F)N1CCN(Cc2cccc(Nc3nccs3)n2)CC1 [MK-8745]
- % Enzyme Activity (relative to DMSO controls) [1]: 102.56%
- remaining activity at 0.5 µM [1, 17]: 105%
- % Enzyme Activity (relative to DMSO controls) [2]: 102.92%
- remaining activity at 0.5 µM [2, 17]: 105%
- remaining activity at 0.5 µM [3]: 91.9%
- % Enzyme Activity (relative to DMSO controls) [4]: 107.62%
- remaining activity at 0.5 µM [4, 17]: 110%
- % Enzyme Activity (relative to DMSO controls) [5]: 96.32%
- remaining activity at 0.5 µM [5, 17]: 97%
- % Enzyme Activity (relative to DMSO controls) [6]: 57.02%
- remaining activity at 0.5 µM [6, 17]: 59.9%
- % Enzyme Activity (relative to DMSO controls) [7]: 98.74%
- remaining activity at 0.5 µM [7, 17]: 98.9%
- % Enzyme Activity (relative to DMSO controls) [8]: 90.67%
- remaining activity at 0.5 µM [8, 17]: 92%
- % Enzyme Activity (relative to DMSO controls) [9]: 99.72%
- remaining activity at 0.5 µM [9, 17]: 102%
- % Enzyme Activity (relative to DMSO controls) [10]: 103.95%
- remaining activity at 0.5 µM [10, 17]: 105%
- % Enzyme Activity (relative to DMSO controls) [11]: 95.86%
- remaining activity at 0.5 µM [11, 17]: 97.4%
- % Enzyme Activity (relative to DMSO controls) [12]: 93.98%
- remaining activity at 0.5 µM [12, 17]: 94.9%
- % Enzyme Activity (relative to DMSO controls) [13]: 102.39%
- remaining activity at 0.5 µM [13, 17]: 104%
- % Enzyme Activity (relative to DMSO controls) [14]: 94.09%
- remaining activity at 0.5 µM [14, 17]: 98.1%
- % Enzyme Activity (relative to DMSO controls) [15]: 94.27%
- remaining activity at 0.5 µM [15, 17]: 95.1%
- % Enzyme Activity (relative to DMSO controls) [16]: 98.01%
- remaining activity at 0.5 µM [16, 17]: 98.6%
